Results published in ChEMBL document CHEMBL5608186, “Design, synthesis and structure-activity relationships of novel non-ketolides: 9-Oxime clarithromycin featured with seven-to thirteen-atom-length diamine linkers at 3-OH” (Eur J Med Chem, 2024).
In brackets after ≈: the same amount, converted by molar mass.

Columns and labels:
[1] = Metabolic stability in human liver microsomes assessed as unchanged drug at 1 uM incubated upto 60 mins in presence of NADPH by LC-MS/MS analysis; format: ADME, Microsome; details: read-out: Stability
Streptococcus pneumoniae [2] = assay: Selectivity ratio of MBC for Streptococcus pneumoniae PU 09 harboring mef gene to MIC for Streptococcus pneumoniae PU 09 harboring mef gene; format: functional
Streptococcus pneumoniae [3] = assay: Bactericidal activity against Streptococcus pneumoniae PU 09 harboring mef gene incubated for 16 to 20 hrs by CLSI based broth microdilution method; format: functional; details: time 16-20 hrs
Staphylococcus aureus [4] = assay: Selectivity ratio of MBC for methicillin-resistant Staphylococcus aureus PU 32 harboring i-ermA gene to MIC for methicillin-resistant Staphylococcus aureus PU 32 harboring i-ermA gene; format: functional
Haemophilus influenzae [5] = assay: Selectivity ratio of MBC for Haemophilus influenzae ATCC 49247 to MIC for Haemophilus influenzae ATCC 49247; format: functional
Streptococcus pyogenes [6] = assay: Bactericidal activity against Streptococcus pyogenes 01-968 harboring i-ermB gene incubated for 16 to 20 hrs by CLSI based broth microdilution method; format: functional; details: time 16-20 hrs
Haemophilus influenzae [7] = assay: Bactericidal activity against Haemophilus influenzae ATCC 49247 incubated for 16 to 20 hrs by CLSI based broth microdilution method; format: functional; details: time 16-20 hrs
Streptococcus pneumoniae [8] = assay: Antibacterial activity against Streptococcus pneumoniae 07P390 harboring c-erm gene incubated for 16 to 20 hrs by CLSI based broth microdilution method; format: functional; details: time 16-20 hrs
Staphylococcus aureus [9] = assay: Antibacterial activity against methicillin-resistant Staphylococcus aureus PU 32 harboring i-ermA gene incubated for 16 to 20 hrs by CLSI based broth microdilution method; format: functional; details: time 16-20 hrs
Staphylococcus aureus [10] = assay: Bactericidal activity against methicillin-resistant Staphylococcus aureus PU 32 harboring i-ermA gene incubated for 16 to 20 hrs by CLSI based broth microdilution method; format: functional; details: time 16-20 hrs
Streptococcus pyogenes [11] = assay: Antibacterial activity against Streptococcus pyogenes 01-968 harboring i-ermB gene incubated for 16 to 20 hrs by CLSI based broth microdilution method; format: functional; details: time 16-20 hrs
Streptococcus pneumoniae [12] = assay: Antibacterial activity against Streptococcus pneumoniae PU 09 harboring mef gene incubated for 16 to 20 hrs by CLSI based broth microdilution method; format: functional; details: time 16-20 hrs
[13] = Metabolic stability in human liver microsomes assessed as intrinsic clearance in liver at 1 uM incubated upto 60 mins in presence of NADPH by LC-MS/MS analysis; format: ADME, Microsome; details: read-out: CLH
[14] = Metabolic stability in rat liver microsomes assessed as unchanged drug at 1 uM incubated upto 60 mins in presence of NADPH by LC-MS/MS analysis; format: ADME, Microsome; details: read-out: Stability
Streptococcus pyogenes [15] = assay: Selectivity ratio of MBC for Streptococcus pyogenes 01-968 harboring i-ermB gene to MIC for Streptococcus pyogenes 01-968 harboring i-ermB gene; format: functional
Streptococcus pneumoniae [16] = assay: Selectivity ratio of MBC for Streptococcus pneumoniae ATCC 49619 to MIC for Streptococcus pneumoniae ATCC 49619; format: functional
Streptococcus pneumoniae [17] = assay: Bactericidal activity against Streptococcus pneumoniae ATCC 49619 incubated for 16 to 20 hrs by CLSI based broth microdilution method; format: functional; details: time 16-20 hrs
Streptococcus pneumoniae [18] = assay: Selectivity ratio of MBC for Streptococcus pneumoniae 07P390 harboring c-erm gene to MIC for Streptococcus pneumoniae 07P390 harboring c-erm gene; format: functional
Streptococcus pneumoniae [19] = assay: Bactericidal activity against Streptococcus pneumoniae 07P390 harboring c-erm gene incubated for 16 to 20 hrs by CLSI based broth microdilution method; format: functional; details: time 16-20 hrs
[20] = Metabolic stability in human liver microsomes assessed as half life at 1 uM incubated upto 60 mins in presence of NADPH by LC-MS/MS analysis; format: ADME, Microsome
Haemophilus influenzae [21] = assay: Antibacterial activity against Haemophilus influenzae ATCC 49247 incubated for 16 to 20 hrs by CLSI based broth microdilution method; format: functional; details: time 16-20 hrs
Staphylococcus aureus [22] = assay: Bactericidal activity against methicillin-resistant Staphylococcus aureus PU 20 harboring c-ermA gene incubated for 16 to 20 hrs by CLSI based broth microdilution method; format: functional; details: time 16-20 hrs
Staphylococcus aureus [23] = assay: Antibacterial activity against methicillin-resistant Staphylococcus aureus PU 20 harboring c-ermA gene incubated for 16 to 20 hrs by CLSI based broth microdilution method; format: functional; details: time 16-20 hrs
Streptococcus pneumoniae [24] = assay: Antibacterial activity against Streptococcus pneumoniae ATCC 49619 incubated for 16 to 20 hrs by CLSI based broth microdilution method; format: functional; details: time 16-20 hrs
[25] = Inhibition of Escherichia coli DNA supercoiling assessed as reduction in protein synthesis by firefly luciferase gene assay; format: functional
Escherichia coli [26] = assay: Selectivity ratio of MIC for Escherichia coli SQ110 DTC harboring Gyr A Ser83Leu mutant to MIC for wild-type Escherichia coli SQ110 DTC; format: functional
Escherichia coli [27] = assay: Antibacterial activity against Escherichia coli SQ110 DTC harboring Gyr A Ser83Leu mutant incubated for 16 to 20 hrs by CLSI based broth microdilution method; format: functional; details: time 16-20 hrs
HEK-293T = assay: Cytotoxicity against HEK293T cells assessed as cell viability at 5 to 50 uM incubated for 48 hrs by CCK8 assay; format: toxicity, cell-based; details: human, dose 5-50 µM
Escherichia coli [28] = assay: Antibacterial activity against Escherichia coli SQ110 DTC harboring 23S rRNA A2058G mutant incubated for 16 to 20 hrs by CLSI based broth microdilution method; format: functional; details: time 16-20 hrs
Escherichia coli [29] = assay: Antibacterial activity against Escherichia coli SQ110 DTC harboring 23S rRNA A2058G/Gyr A Ser83Leu mutant incubated for 16 to 20 hrs by CLSI based broth microdilution method; format: functional; details: time 16-20 hrs
[30] = Metabolic stability in Escherichia coli SQ110 DTC assessed as unchanged drug at 5 to 10 times MIC measured after 60 mins by LC-MS/MS analysis; format: ADME; details: Escherichia coli SQ110 DTC cells, read-out: Stability
Escherichia coli [31] = assay: Selectivity ratio of MIC for Escherichia coli SQ110 DTC harboring 23S rRNA A2058G mutant to MIC for wild-type Escherichia coli SQ110 DTC; format: functional
Escherichia coli [32] = assay: Antibacterial activity against wild-type Escherichia coli SQ110 DTC incubated for 16 to 20 hrs by CLSI based broth microdilution method; format: functional; details: time 16-20 hrs
DNA gyrase = DNA gyrase (Escherichia coli, UniProt P0AES4+P0AES6); assay: Inhibition of Escherichia coli DNA gyrase using pBR322 DNA as substrate incubated for 30 mins by electrophoresis; format: protein-complex assay
HepG2 = assay: Cytotoxicity against human HepG2 cells assessed as cell viability at 5 to 50 uM incubated for 48 hrs by CCK8 assay; format: toxicity, cell-based; details: hepg2, 48 h, dose 5-50 µM
Escherichia coli [33] = assay: Selectivity ratio of MIC for Escherichia coli SQ110 DTC harboring 23S rRNA A2058G/Gyr A Ser83Leu mutant to MIC for wild-type Escherichia coli SQ110 DTC; format: functional

| Compound | remaining at 1 h, 1 µM [1] [%] | MBC (Streptococcus pneumoniae [3]) [µg/mL] | Selectivity ratio (Staphylococcus aureus [4]) | Selectivity ratio (Haemophilus influenzae [5]) | MBC (Streptococcus pyogenes [6]) [µg/mL] | MBC (Haemophilus influenzae [7]) [µg/mL] | MIC (Streptococcus pneumoniae [8]) [µg/mL] | MIC (Staphylococcus aureus [9]) [µg/mL] | MBC (Staphylococcus aureus [10]) [µg/mL] | MIC (Streptococcus pyogenes [11]) [µg/mL] | MIC (Streptococcus pneumoniae [12]) [µg/mL] | CLint scaled at 1 µM [13] [mL/min/kg] | remaining at 1 h, 1 µM [14] [%] | Selectivity ratio (Streptococcus pyogenes [15]) | Selectivity ratio (Streptococcus pneumoniae [16]) | MBC (Streptococcus pneumoniae [17]) [µg/mL] | Selectivity ratio (Streptococcus pneumoniae [18]) | MBC (Streptococcus pneumoniae [19]) [µg/mL] | half-life at 1 µM [20] [min] | MIC (Haemophilus influenzae [21]) [µg/mL] | other results |
| --- | --- | --- | --- | --- | --- | --- | --- | --- | --- | --- | --- | --- | --- | --- | --- | --- | --- | --- | --- | --- | --- |
| CC[C@H]1OC(=O)[C@H](C)[C@@H](OC(=O)CCNCCCCCNc2cc3c(cc2F)c(=O)c(C(=O)O)cn3C2CC2)[C@H](C)[C@@H](O[C@@H]2O[C@H](C)C[C@H](N(C)C)[C@H]2O)[C@](C)(OC)C[C@@H](C)/C(=N\OC)[C@H](C)[C@H]2OC(=O)O[C@@]21C | 42 | 1 (≈ 0.956 µM) | 8 | 1 | > 0.062 | 256 (≈ 245 µM) | 1 (≈ 0.956 µM) | 1 (≈ 0.956 µM) | 8 (≈ 7.65 µM) | ≤ 0.008 | 0.5 (≈ 0.478 µM) | 21.8 | 98.4 | >8 | 2 | 0.125 (≈ 0.119 µM) | 2 | 2 (≈ 1.91 µM) | 57.3 | 256 (≈ 245 µM) | Selectivity ratio (Streptococcus pneumoniae [2]): 2; MBC (Staphylococcus aureus [22]): > 256 µg/mL; MIC (Staphylococcus aureus [23]): 128 µg/mL (≈ 122 µM); MIC (Streptococcus pneumoniae [24]): 0.062 µg/mL (≈ 0.0593 µM) |
| CCOc1ccc2ccc(=O)oc2c1 | 14.1 |  |  |  |  |  |  |  |  |  |  | 58.7 | 1 |  |  |  |  |  | 21.2 |  |  |
| CC[C@H]1OC(=O)[C@H](C)[C@@H](OC(=O)CCNCCCCNc2cc3c(cc2F)c(=O)c(C(=O)O)cn3C2CC2)[C@H](C)[C@@H](O[C@@H]2O[C@H](C)C[C@H](N(C)C)[C@H]2O)[C@](C)(OC)C[C@@H](C)/C(=N\OCC#Cc2cncc(C(=O)NC)c2)[C@H](C)[C@H]2OC(=O)O[C@@]21C | 91.3 | 0.008 (≈ 0.00672 µM) | 1 | 2 | > 0.5 | 4 (≈ 3.36 µM) | 0.12 (≈ 0.101 µM) | 32 (≈ 26.9 µM) | 32 (≈ 26.9 µM) | 0.06 (≈ 0.0504 µM) | ≤ 0.008 | 2.7 | 70.6 | >8 | >=1 | 0.008 (≈ 0.00672 µM) | 8 | 1 (≈ 0.84 µM) | 459 | 2 (≈ 1.68 µM) | IC50 [25]: 740 nM; Selectivity ratio (Escherichia coli [26]): 2; MIC (Escherichia coli [27]): 8 µg/mL (≈ 6.72 µM); Activity (HEK-293T): Non-Toxic; MIC (Escherichia coli [28]): 4 µg/mL (≈ 3.36 µM); MIC (Escherichia coli [29]): > 128 µg/mL; remaining at 1 h [30]: 84.3%; Selectivity ratio (Escherichia coli [31]): 1; MIC (Escherichia coli [32]): 4 µg/mL (≈ 3.36 µM); IC50 (DNA gyrase): 11900 nM; Activity (HepG2): Non-Toxic; MBC (Staphylococcus aureus [22]): > 256 µg/mL; MIC (Staphylococcus aureus [23]): > 256 µg/mL; Selectivity ratio (Escherichia coli [33]): >32; MIC (Streptococcus pneumoniae [24]): ≤ 0.008 µg/mL |
| CC[C@H]1OC(=O)[C@H](C)[C@@H](O[C@H]2C[C@@](C)(OC)[C@@H](O)[C@H](C)O2)[C@H](C)[C@@H](O[C@@H]2O[C@H](C)C[C@H](N(C)C)[C@H]2O)[C@](C)(O)C[C@@H](C)C(=O)[C@H](C)[C@@H](O)[C@]1(C)O [ERYTHROMYCIN] |  |  |  |  |  |  |  |  |  |  |  |  |  |  |  |  |  |  |  |  | IC50 [25]: 1100 nM; Selectivity ratio (Escherichia coli [26]): 1; MIC (Escherichia coli [27]): 2 µg/mL (≈ 2.73 µM); MIC (Escherichia coli [28]): > 128 µg/mL; MIC (Escherichia coli [29]): > 128 µg/mL; Selectivity ratio (Escherichia coli [31]): >64; MIC (Escherichia coli [32]): 2 µg/mL (≈ 2.73 µM); Selectivity ratio (Escherichia coli [33]): >64 |
